The source of these data is patent US8846110B2, “Polymeric systems for the delivery of anticancer drugs” (Rexahn Pharmaceuticals, Inc., priority 2009, dated 2014).

One experiment concerns Caki-1. Nature of the experiment: In vitro cell proliferation (SRB) assay, Caki-1. The class given is cell-based. As to conditions: Homo sapiens, drug equivalent, 96 hours incubation, SRB method. A general note: The SRB assay estimates cell density from bound dye.
A further experiment has as its system HCT116 (colon). Nature of the experiment: In vitro cell proliferation (SRB) assay, HCT116. The format is cell-based. The conditions noted are these: Homo sapiens, HCT-116; drug equivalent; 96 hours incubation; SRB method. The procedure: (§1) Cancer cell lines to determine the effect of polymer-drug conjugates were obtained from the following sources: Human MDA-MB-231 (breast), HCT116 (colon) and PANC-1 (pancreas), from the American Type Culture Collection (ATCC) (Manassas, Va.). UMRC2 (kidney) from United States National Cancer Institute (Bethesda, Md.). Cells were maintained in Dulbecco's modified Eagle's medium (“DMEM”, Invitrogen) supplemented with 10% FBS, P/S and 10 mM HEPES. All cells were incubated at 37° C. under humidified 5% CO2.
(§2) The growth inhibition assay of polymer-drug conjugates against human cancer cell lines was performed using the Sulforhodamine B (“SRB”) method (Skehan et al., J. National Cancer Institute, 82: 1107-1112 (1990)). […] After 5 minutes agitation in 10 mM Tris solution, the absorbance of each well was measured at 530 nm using Benchmark Plus Microplate reader (Bio-Rad Laboratories, Hercules, Calif.). The absorbance value provides a direct measure of the number of live cells post-treatment with copolymer-drug conjugates.
(§3) To translate the OD530 values into the number of live cells in each well, the OD530 values were compared to those on standard OD530—versus—cell number curves generated for each cell line. The percent survival was calculated using the formula: % Survival=live cell number [test]/live cell number [control]×100
(§4) The IC50 values were calculated by non-linear regression analysis.

The next experiment relates to MDA-MB-231 (breast). Nature of the experiment: In vitro cell proliferation (SRB) assay, MDA-MB-231. The class given is cell-based. The conditions noted are these: Homo sapiens, drug equivalent, 96 hours incubation, SRB method. The protocol:
as §1, §2, §3, §4

In a further experiment the target is mucin-1 (Homo sapiens, UniProt P15941). As to conditions: specific ligand of mucin-1; cited from earlier work.
In experiment [1] the target is glycosylphosphatidylinositol-linked folate receptor (FR). The conditions noted are these: high affinity folate receptor; cited from earlier work.
The target of a further experiment is T1, reduced folate carrier (Homo sapiens, UniProt P41440).
T1 sequence (P41440 1-591): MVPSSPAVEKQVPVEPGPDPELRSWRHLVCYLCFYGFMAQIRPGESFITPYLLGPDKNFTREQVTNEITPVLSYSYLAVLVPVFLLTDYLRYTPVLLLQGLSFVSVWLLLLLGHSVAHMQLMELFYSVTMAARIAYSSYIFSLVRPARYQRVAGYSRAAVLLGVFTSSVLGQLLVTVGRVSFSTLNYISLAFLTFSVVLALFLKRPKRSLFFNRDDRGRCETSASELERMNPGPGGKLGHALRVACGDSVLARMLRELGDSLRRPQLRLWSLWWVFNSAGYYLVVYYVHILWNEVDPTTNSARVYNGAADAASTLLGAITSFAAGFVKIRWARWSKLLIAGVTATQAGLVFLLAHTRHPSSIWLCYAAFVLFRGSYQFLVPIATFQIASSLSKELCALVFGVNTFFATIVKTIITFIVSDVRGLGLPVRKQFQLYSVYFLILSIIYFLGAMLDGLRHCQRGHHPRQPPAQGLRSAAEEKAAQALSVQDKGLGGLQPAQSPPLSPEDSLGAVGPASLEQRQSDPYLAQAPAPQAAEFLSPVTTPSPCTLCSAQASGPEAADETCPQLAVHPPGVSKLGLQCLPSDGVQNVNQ
The conditions noted are these: low affinity reduced folate carrier, cellular uptake; cited from earlier work.

mucin-1, sequence (P15941 24-1255): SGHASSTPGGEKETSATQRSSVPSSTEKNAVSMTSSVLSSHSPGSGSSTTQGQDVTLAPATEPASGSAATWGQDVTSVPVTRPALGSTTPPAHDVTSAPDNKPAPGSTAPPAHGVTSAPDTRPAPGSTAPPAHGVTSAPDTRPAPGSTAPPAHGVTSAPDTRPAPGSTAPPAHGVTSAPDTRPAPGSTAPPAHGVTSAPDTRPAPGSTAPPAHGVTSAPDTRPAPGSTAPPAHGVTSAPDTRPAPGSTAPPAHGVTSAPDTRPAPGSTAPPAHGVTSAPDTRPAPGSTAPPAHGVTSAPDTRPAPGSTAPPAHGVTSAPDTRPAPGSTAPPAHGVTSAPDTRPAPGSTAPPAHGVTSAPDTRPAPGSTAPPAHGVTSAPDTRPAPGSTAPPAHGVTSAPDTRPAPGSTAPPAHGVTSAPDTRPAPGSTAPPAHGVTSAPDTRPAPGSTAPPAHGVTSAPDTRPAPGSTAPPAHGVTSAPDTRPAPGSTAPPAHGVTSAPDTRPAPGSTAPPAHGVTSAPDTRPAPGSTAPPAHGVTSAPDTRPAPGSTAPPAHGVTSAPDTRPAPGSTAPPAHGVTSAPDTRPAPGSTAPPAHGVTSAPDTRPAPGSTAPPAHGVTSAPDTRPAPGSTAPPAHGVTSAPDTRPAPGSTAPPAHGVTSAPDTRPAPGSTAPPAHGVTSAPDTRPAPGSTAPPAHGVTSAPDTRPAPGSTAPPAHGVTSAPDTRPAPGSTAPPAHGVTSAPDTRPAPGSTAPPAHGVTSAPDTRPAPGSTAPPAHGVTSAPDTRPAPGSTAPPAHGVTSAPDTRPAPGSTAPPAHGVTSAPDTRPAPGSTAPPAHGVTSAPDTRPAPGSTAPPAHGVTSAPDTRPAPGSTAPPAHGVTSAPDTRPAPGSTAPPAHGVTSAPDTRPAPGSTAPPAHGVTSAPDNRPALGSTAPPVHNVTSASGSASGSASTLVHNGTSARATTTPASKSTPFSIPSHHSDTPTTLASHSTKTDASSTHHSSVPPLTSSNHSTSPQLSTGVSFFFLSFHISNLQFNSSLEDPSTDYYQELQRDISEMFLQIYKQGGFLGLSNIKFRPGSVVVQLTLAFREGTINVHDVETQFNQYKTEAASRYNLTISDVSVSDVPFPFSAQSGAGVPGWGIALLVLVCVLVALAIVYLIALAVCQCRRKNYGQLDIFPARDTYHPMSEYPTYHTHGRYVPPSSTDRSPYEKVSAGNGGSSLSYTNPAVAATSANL

As to `CC(=O)O[C@@]12CO[C@@H]1C[C@H](O)[C@@]1(C)C(=O)[C@H](O)C3=C(C)[C@@H](OC(=O)[C@H](O)[C@@H](NC(=O)OC(C)(C)C)c4ccccc4)C[C@@](O)([C@@H](OC(=O)c4ccccc4)[C@H]21)C3(C)C` [Docetaxel, docetaxel], the IC50 – broadly, the concentration needed to halve the response being measured – turned out to be 0.001 µM in the experiment on Caki-1, 0.00058 µM with HCT116 (colon) and 0.0015 µM with MDA-MB-231 (breast).

For YCAREPPTRTFAYWG [EPPT1], the Kd – broadly, the concentration at which binding is half-saturated – on mucin-1 is 20 µM.

`Nc1nc2ncc(CNc3ccc(C(=O)N[C@@H](CCC(=O)O)C(=O)O)cc3)nc2c(=O)[nH]1` [folates, Folic acid]: in experiment [1], the Kd was roughly 0.1 nM. The Km (usually the substrate concentration at which the rate is half of its maximum) on reduced folate carrier is roughly 1000 nM.
